From patent publication EP0156224A2, “Novel benzoxathiin derivative, process for preparing them and pharmaceutical composition” (SUNTORY LIMITED, priority 1984, dated 1985)
Like-named read-outs stand apart in the source and are kept apart here.

Experiments:
β-Receptor = assay: β-receptor blocking effect: 3H-dihydroalprenolol binding to synaptosome membrane of rat brain
Method: Spraque-Dawley male rats having 150 - 200 g body weight were decapitated, and the brains were quickly taken out and, after decortication, frozen at -70°C. After freezing overnight at -70°C, the thawed brain was homogenized with a buffer [0.25 mole sucrose, 5 mmole tris(hydroxymethyl)aminomethane hydrochloride, 1 mmole magnesium chloride, pH 7.4] in an amount of 8 times the weight of the brain. The homogenate was centrifuged at 800 x g for 20 minutes, and the supernatant was centrifuged at 14,000 x g for 14 minutes, the deposit of which was washed three times with the above-mentioned buffer. The deposit finally obtained was suspended again in a buffer of 75 mmole tris(hydroxymethyl)aminomethane and 25 mmole magnesium chloride (pH 7.4) to form a membrane specimen.
To 50 1 of the membrane specimen were added 50 1 of ^3H-dihydroalprenolol (^3H-OHA) and 50 1 of the mixture of the test frug and the buffer, such that the total volume was adjusted to 150 1, and the mixture was incubated at 37°C for 10 minutes.
The reaction was stopped by adding an ice-cooled mixture of 50 mmole tris(hydroxymethyl)aminomethane hydrochloride and 17 mmole magnesium chloride (pH 7.4), and the mixture was filtered under reduced pressure through a Whatman GF/B glassfiber. The filter was washed three times and dried, and a toluene type scintillator was added to measure the radioactivity.
. In the measurement, the amount obtained by subtracting the bondings obtained in the presence of 10^-5 mole propranolol from the total bondings was considered to represent the specific bondings of the S-receptor. In addition, the determination of protein was carried out according to the method of Lowry et al. [Lowry, O.H. et al., J. Biol. Chem., 193, 265-275 (1951)].

ddy male mouse = assay: Anti-arrhythmic effect: prevention of chloroform-induced ventricular flutter and fibrillation; assay type: in vivo; conditions: ip, 0.5 h, read-out: Anti-arrhythmic effect (ED50)
Method: When a compound showing an anti-arrhythmic effect is previously administered, such an irregular ventricular appearance is prevented. The compound of this invention was intraperioneally administered in various dosages to the groups of 29 - 40 mice. After 30 minutes the mice were subjected to the inhalation of chloroform, and the preventive ratios of the venticular flutter and fibrillation were measured for respective dosages.

in vivo = conditions: mouse, ddy male mice, mortality within 1 week
[1] = tested on: SHR (spontaneous hypertensive rat); assay: Effect on mean blood pressure in conscious spontaneously hypertensive rats; assay type: in vivo; conditions: for mean blood pressure % Exchange: conscious SHR, mean ±SEM
From the text: In order to measure the blood pressure of a SHR (spontaneous hypertensive rat), a polyethylene tube was inserted into an artery to a level of the abdominal aorta through the crural artery, and the other end of the tube was tightly stoppered by a metal rod, extended subcutaneously and exposed out of the body at the posterior of the neck and fixed by suturation to the surrounding skin. The tube was filled with 500 U of heparin.
On the day subsequent to the operation, the blood pressure was measured without anesthetization or restriction using a pressure transducer and continously recorded on a thermal recording system together with the heart rate which was measured by driving a tachometer with the pulse wave of blood pressure.
The test drugs were dissolved in physiological saline and administered using a sound (p.o.)

[2] = 10^-5 mole test compound, 10 µM
[3] = intraperitoneal, chloroform inhalation after 30 minutes, mice
[4] = iv, caudal vein, read-out: Acute toxicity (LD50) intra-venous
[5] = po, in stomach, read-out: Acute toxicity (LD50) in stomach

CNCC(O)COc1cccc2c1OS(=O)(=O)CC2 (stereo not drawn) [Example 1, 8-(3-methylamino-2-hydroxypropoxy)-3,4-dihydro-1,2-benzoxathiin-2,2-dioxide]
β-Receptor blocking effect Inhibition (%) (β-Receptor; [2]): 73.9% | β-Receptor blocking effect Inhibition (%) (β-Receptor; 10^-6 mole test compound, 1 µM): 35.4%

CN(C)CC(O)COc1cccc2c1OS(=O)(=O)CC2 (stereo not drawn) [Example 2, 8-(3-dimethylamino-2-hydroxypropoxy)-3,4-dihydro-1,2-benzoxathiin-2,2-dioxide]
β-Receptor blocking effect Inhibition (%) (β-Receptor; [2]): 62.6% | β-Receptor blocking effect Inhibition (%) (β-Receptor; 10^-6 mole test compound, 1 µM): 17.1%

CC(C)NCC(O)COc1cccc2c1OS(=O)(=O)CC2 (stereo not drawn) [Example 3, 8-(3-isopropylamino-2-hydroxypropoxy)-3,4-dihydro-1,2-benzoxathiin-2,2-dioxide]
β-Receptor blocking effect Inhibition (%) (β-Receptor; [2]): 91.6% | β-Receptor blocking effect Inhibition (%) (β-Receptor; 10^-6 mole test compound, 1 µM): 97.6% | ED50 (ddy male mouse; [3]): 0.23 mg/kg | LD50 at 168 h (in vivo; [4]): 68.2 mg/kg | LD50 at 168 h (in vivo; [5]): > 500 mg/kg

CC(C)(C)NCC(O)COc1cccc2c1OS(=O)(=O)CC2 (stereo not drawn) [Example 4, 8-(3-t-butylamino-2-hydroxypropoxy)-3,4-dihydro-l,2-benzoxathiin-2,2-dioxide]
β-Receptor blocking effect Inhibition (%) (β-Receptor; [2]): 91.4% | β-Receptor blocking effect Inhibition (%) (β-Receptor; 10^-6 mole test compound, 1 µM): 96.3% | ED50 (ddy male mouse; [3]): 0.03 mg/kg | mean blood pressure % Exchange ([1]; 0.1 mg/kg p.o., 10 min): 6.4 ± 3.5% | mean blood pressure % Exchange ([1]; 0.1 mg/kg p.o., 20 min): 4.6 ± 3.2% | mean blood pressure % Exchange ([1]; 0.1 mg/kg p.o., 30 min): 4.1 ± 2.6% | mean blood pressure % Exchange ([1]; 0.1 mg/kg p.o., 60 min): -4.2 ± 3.8% | mean blood pressure % Exchange ([1]; 0.1 mg/kg p.o., 90 min): -6.5 ± 3.2% | mean blood pressure % Exchange ([1]; 0.1 mg/kg p.o., 120 min): -7.3 ± 5.9% | mean blood pressure % Exchange ([1]; 0.1 mg/kg p.o., 3 hr): -8.9 ± 3.0% | mean blood pressure % Exchange ([1]; 0.1 mg/kg p.o., 4 hr): -13.0 ± 2.5 % | mean blood pressure % Exchange ([1]; 0.1 mg/kg p.o., 5 hr): -14.7 ± 2.5 % | mean blood pressure % Exchange ([1]; 0.1 mg/kg p.o., 6 hr): -14.8 ± 2.4 % | mean blood pressure % Exchange ([1]; 0.1 mg/kg p.o., 24 hr): -2.8 ± 4.2% | mean blood pressure % Exchange ([1]; 1 mg/kg p.o., 10 min): 1.4 ± 1.2% | mean blood pressure % Exchange ([1]; 1 mg/kg p.o., 20 min): -0.3 ± 1.7% | mean blood pressure % Exchange ([1]; 1 mg/kg p.o., 30 min): -8.1 ± 2.9 % | mean blood pressure % Exchange ([1]; 1 mg/kg p.o., 60 min): -12.0 ± 4.3 % | mean blood pressure % Exchange ([1]; 1 mg/kg p.o., 90 min): -10.9 ± 2.8 % | mean blood pressure % Exchange ([1]; 1 mg/kg p.o., 120 min): -14.5 ± 4.3 % | mean blood pressure % Exchange ([1]; 1 mg/kg p.o., 3 hr): -16.3 ± 4.1 % | mean blood pressure % Exchange ([1]; 1 mg/kg p.o., 4 hr): -20.0 ± 3.7 % | mean blood pressure % Exchange ([1]; 1 mg/kg p.o., 5 hr): -24.5 ± 4.0 % | mean blood pressure % Exchange ([1]; 1 mg/kg p.o., 6 hr): -24.1 ± 3.3 % | mean blood pressure % Exchange ([1]; 1 mg/kg p.o., 24 hr): -11.5 ± 6.2% | duration of hypotensive effect ([1]; result in words, SHR, p.o., after 24 hours): remains effective even after 24 hours | hypotensive effect ([1]; result in words, SHR, p.o., compared with carteolol): excellent hypotensive effect at almost the same level as carteolol | LD50 at 168 h (in vivo; [4]): 59.2 mg/kg | LD50 at 168 h (in vivo; [5]): > 500 mg/kg

CCC(C)NCC(O)COc1cccc2c1OS(=O)(=O)CC2 (stereo not drawn) [Example 5, 8-(3-sec-butylamino-2-hydroxypropoxy)-3,4-dihydro-1,2-benzoxathiin-2,2-dioxide]
β-Receptor blocking effect Inhibition (%) (β-Receptor; [2]): 95.3% | β-Receptor blocking effect Inhibition (%) (β-Receptor; 10^-6 mole test compound, 1 µM): 83.0% | ED50 (ddy male mouse; [3]): 1.3 mg/kg | LD50 at 168 h (in vivo; [4]): 68.2 mg/kg | LD50 at 168 h (in vivo; [5]): > 500 mg/kg

CC(C)CNCC(O)COc1cccc2c1OS(=O)(=O)CC2 (stereo not drawn) [Example 6, 8-(3-isobutylamino-2-hydroxypropoxy)-3,4-dihydro-l,2-benzoxathiin-2,2-dioxide]
β-Receptor blocking effect Inhibition (%) (β-Receptor; [2]): 81.9% | β-Receptor blocking effect Inhibition (%) (β-Receptor; 10^-6 mole test compound, 1 µM): 41.7%

COc1ccc(CCNCC(O)COc2cccc3c2OS(=O)(=O)CC3)cc1OC (stereo not drawn) [Example 7, 8-[3-(3,4-dimethoxyphenethylamino)-2-hydroxy-propoxy]-3,4-dihydro-1,2-benzoxathiin-2,2-dioxide]
β-Receptor blocking effect Inhibition (%) (β-Receptor; [2]): 90.1% | β-Receptor blocking effect Inhibition (%) (β-Receptor; 10^-6 mole test compound, 1 µM): 75.2%

CCCC(=O)Nc1ccc(OCC(O)CNC(C)C)c(C(C)=O)c1 (stereo not drawn) [acebutolol, reference compound]
ED50 (ddy male mouse; [3]): 47 mg/kg

CC(C)(C)NCC(O)COc1cccc2c1CCC(=O)N2 (stereo not drawn) [carteolol, reference compound]
ED50 (ddy male mouse; [3]): 400 mg/kg | mean blood pressure % Exchange ([1]; 0.1 mg/kg p.o., 10 min): 1.4 ± 2.1% | mean blood pressure % Exchange ([1]; 0.1 mg/kg p.o., 20 min): -9.2 ± 4.0% | mean blood pressure % Exchange ([1]; 0.1 mg/kg p.o., 30 min): -11.3 ± 3.9 % | mean blood pressure % Exchange ([1]; 0.1 mg/kg p.o., 90 min): -18.1 ± 3.7 % | mean blood pressure % Exchange ([1]; 0.1 mg/kg p.o., 120 min): -12.7 ± 6.5% | mean blood pressure % Exchange ([1]; 0.1 mg/kg p.o., 3 hr): -15.4 ± 3.3 % | mean blood pressure % Exchange ([1]; 0.1 mg/kg p.o., 4 hr): -15.1 ± 3.7 % | mean blood pressure % Exchange ([1]; 0.1 mg/kg p.o., 5 hr): -18.8 ± 1.3 % | mean blood pressure % Exchange ([1]; 0.1 mg/kg p.o., 6 hr): -20.8 ± 1.7 % | mean blood pressure % Exchange ([1]; 0.1 mg/kg p.o., 24 hr): -2.1 ± 2.5% | mean blood pressure % Exchange ([1]; 1 mg/kg p.o., 10 min): 2.5 ± 3.2% | mean blood pressure % Exchange ([1]; 1 mg/kg p.o., 20 min): -1.4 ± 2.6% | mean blood pressure % Exchange ([1]; 1 mg/kg p.o., 30 min): -5.1 ± 3.6% | mean blood pressure % Exchange ([1]; 1 mg/kg p.o., 60 min): -11.7 ± 3.3 % | mean blood pressure % Exchange ([1]; 1 mg/kg p.o., 90 min): -14.7 ± 3.6 % | mean blood pressure % Exchange ([1]; 1 mg/kg p.o., 120 min): -23.8 ± 3.0 % | mean blood pressure % Exchange ([1]; 1 mg/kg p.o., 3 hr): -23.1 ± 4.8 % | mean blood pressure % Exchange ([1]; 1 mg/kg p.o., 4 hr): -24.4 ± 4.2 % | mean blood pressure % Exchange ([1]; 1 mg/kg p.o., 5 hr): -24.7 ± 4.7 % | mean blood pressure % Exchange ([1]; 1 mg/kg p.o., 6 hr): -21.3 ± 4.2 % | mean blood pressure % Exchange ([1]; 1 mg/kg p.o., 24 hr): -2.1 ± 4.5% | LD50 at 168 h (in vivo; [4]): 38 mg/kg

CC(C)NCC(O)COc1cccc2ccccc12 (stereo not drawn) [propranolol, reference compound]
ED50 (ddy male mouse): 2.2 mg/kg
